Molecular target: WT HIV-1 protease (Human immunodeficiency virus type 1 group M subtype B (isolate HXB2) (HIV-1), UniProt P04585)
Assay: Assay for inhibition of microbial expressed HIV protease (Procedure A, peptide substrate, HPLC fluorescence detection)
Assay type: biochemical
Settings: WT HIV-1 protease 10 pM, substrate 400 micromolar, pH 5.5, 30 min preincubation, 1 hour at 30° C.; read-out: Enzyme inhibition IC50
Protocol: The inhibition of WT HIV-1 protease was studied using the reaction of the protease (expressed in Eschericia coli) with a peptide substrate [Val-Ser-Gln-Asn-(betanaphthyl)Ala-Pro-Ile-Val (SEQ ID NO:1)]. Compounds were tested using Procedure A. In Procedure A, the test compound was first preincubated with the enzyme in assay buffer (50 mM sodium acetate, pH 5.5, 100 mM NaCl, and 0.1% BSA) for 30 minutes at room temperature. Substrate was then added to 400 micromolar in a total volume of 80 microliters containing 10 picomolar HIV-1 protease and the reaction was incubated for 1 hour at 30° C. The reaction was quenched with the addition of 120 microliters of 10% phosphoric acid. The product formation was determined after separation of product and substrate on a Zorbax Eclipse XDB-C18 column (Agilent Technologies, Santa Clara, Calif.) connected to an Agilent 1100 high performance liquid chromatography system with fluorescence detection (excitation 270 nanometer and emission 330 nanometer).

Structure (SMILES) | IC50 [nM]
COC(=O)N[C@H](C(=O)NCc1csc(C(CO)N(CCC(C)C)S(=O)(=O)c2ccccc2)c1)C(c1ccccc1)c1ccccc1 (stereo partly drawn) [Example 1, N-[(5-{2-hydroxy-1-[(3-methylbutyl)(phenylsulfonyl)amino]ethyl}thiophen-3-yl)methyl]-Nα-(methoxycarbonyl)-β-phenyl-L-phenylalaninamide] | 72.8
COC(=O)N[C@H](C(=O)NCc1cnc(C(CO)N(CCC(C)C)S(=O)(=O)c2ccccc2)s1)C(c1ccccc1)c1ccccc1 (stereo partly drawn) [Example 2, N-[(2-{2-hydroxy-1-[(3-methylbutyl)(phenylsulfonyl)amino]ethyl}-1,3-thiazol-5-yl)methyl]-Nα-(methoxycarbonyl)-β-phenyl-L-phenylalaninamide] | 250
COC(=O)N[C@H](C(=O)NCc1ncc(C(CO)N(CCC(C)C)S(=O)(=O)c2ccccc2)s1)C(c1ccccc1)c1ccccc1 (stereo partly drawn) [Example 3, N-[(5-{2-hydroxy-1-[(3-methylbutyl)(phenylsulfonyl)amino]ethyl}-1,3-thiazol-2-yl)methyl]-Nα-(methoxycarbonyl)-β-phenyl-L-phenylalaninamide] | 12.1
COC(=O)N[C@H](C(=O)NCc1ccc(C(CO)N(CCC(C)C)S(=O)(=O)c2ccccc2)s1)C(c1ccccc1)c1ccccc1 (stereo partly drawn) [Example 4] | 8.81
COC(=O)N[C@H](C(=O)NCc1ccc(C(CO)N(CCC(C)C)S(=O)(=O)c2ccc(CO)cc2)s1)C(c1ccccc1)c1ccccc1 (stereo partly drawn) [Example 5] | 0.54
COC(=O)N[C@H](C(=O)NCc1cc(C(CO)N(CCC(C)C)S(=O)(=O)c2ccccc2)cs1)C(c1ccccc1)c1ccccc1 (stereo partly drawn) [Example 6, N-[(4-{2-hydroxy-1-[(3-methylbutyl)(phenylsulfonyl)amino]ethyl}thiophen-2-yl)methyl]-Nα-(methoxycarbonyl)-β-phenyl-L-phenylalaninamide] | 42.7
COC(=O)N[C@H](C(=O)NC(C)c1ccc(C(CO)N(CCC(C)C)S(=O)(=O)c2ccccc2)s1)C(c1ccccc1)c1ccccc1 (stereo partly drawn) [Example 7, N-[1-(5-{2-hydroxy-1-[(3-methylbutyl)(phenylsulfonyl)amino]ethyl}thiophen-2-yl)ethyl]-Nα-(methoxycarbonyl)-β-phenyl-L-phenylalaninamide] | 3.5
COC(=O)N[C@H](C(=O)NC(C)c1ccc(C(CO)N(CCC(C)C)S(=O)(=O)c2ccc(CO)cc2)s1)C(c1ccccc1)c1ccccc1 (stereo partly drawn) [Example 8] | 0.31
CCC(NC(=O)[C@@H](NC(=O)OC)C(c1ccccc1)c1ccccc1)c1ccc(C(CO)N(CCC(C)C)S(=O)(=O)c2ccc(CO)cc2)s1 (stereo partly drawn) [Example 9] | 0.63
COC(=O)N[C@H](C(=O)NCc1ccc([C@@H](CO)N(CC(C)C)S(=O)(=O)c2ccc(N)cc2)s1)C(c1ccccc1)c1ccccc1 [Example 10, N-({5-[(1R)-1-{[(4-aminophenyl)sulfonyl](2-methylpropyl)amino}-2-hydroxyethyl]thiophen-2-yl}methyl)-Nα-(methoxycarbonyl)-β-phenyl-L-phenylalaninamide] | 2.6
COC(=O)N[C@H](C(=O)NCc1ccc([C@@H](CO)N(CC2CC(F)(F)C2)S(=O)(=O)c2ccc(N)cc2)s1)C(c1ccccc1)c1ccccc1 [Example 11] | 1.61
COC(=O)N[C@H](C(=O)NCc1ccc([C@@H](CO)N(C(C)C)S(=O)(=O)c2ccc(N)cc2)s1)C(c1ccccc1)c1ccccc1 [Example 12] | 18.8
COC(=O)N[C@H](C(=O)NCc1ccc([C@@H](CO)N(Cc2cc3cccnc3[nH]2)S(=O)(=O)c2ccc(N)cc2)s1)C(c1ccccc1)c1ccccc1 [Example 13] | 3.9
COC(=O)N[C@H](C(=O)NCc1ccc([C@@H](CO)N(CC(C)C)S(=O)(=O)c2cccc(CC(C)(C)O)c2)s1)C(c1ccccc1)c1ccccc1 [Example 14] | 4.1
COC(=O)N[C@H](C(=O)NCc1ccc([C@@H](CO)N(CC2CC(F)(F)C2)S(=O)(=O)c2cccc(CC(C)(C)O)c2)s1)C(c1ccccc1)c1ccccc1 [Example 15] | 6.6
COC(=O)N[C@H](C(=O)NCc1ccc([C@@H](CO)N(CC2CC(F)(F)C2)S(=O)(=O)c2ccc3cc[nH]c(=O)c3c2)s1)C(c1ccccc1)c1ccccc1 [Example 16] | 0.44
COC(=O)N[C@H](C(=O)NCc1ccc([C@@H](CO)N(CC2CC(F)(F)C2)S(=O)(=O)c2ccc3c(c2)COCC3)s1)C(c1ccccc1)c1ccccc1 [Example 17] | 2.4
COC(=O)N[C@H](C(=O)NCc1ccc([C@@H](CO)N(Cc2nonc2C)S(=O)(=O)c2ccc(N)cc2)s1)C(c1ccccc1)c1ccccc1 [Example 18] | 6.95
COC(=O)N[C@H](C(=O)NCc1ccc([C@@H](CO)N(Cc2cnon2)S(=O)(=O)c2ccc(N)cc2)s1)C(c1ccccc1)c1ccccc1 [Example 19] | 33.8
COC(=O)N[C@H](C(=O)NCc1ccc(C(CO)N(Cc2cnon2)S(=O)(=O)c2ccc(N)cc2)s1)C(c1ccccc1)c1ccccc1 (stereo partly drawn) [Example 20] | 6.97
COC(=O)N[C@H](C(=O)NCc1ccc(C(CO)N(C(C)C)S(=O)(=O)c2ccc3scnc3c2)s1)C(c1ccccc1)c1ccccc1 (stereo partly drawn) [Example 21] | 62.4

Structure (SMILES) | IC50 [nM]
COC(=O)N[C@H](C(=O)NCc1ccc([C@@H](CO)N(CC(C)C)S(=O)(=O)c2ccc3scnc3c2)s1)C(c1ccccc1)c1ccccc1 [Example 22] | 6.1
COC(=O)N[C@H](C(=O)NCc1ccc([C@H](CO)N(CC(C)C)S(=O)(=O)c2ccc3scnc3c2)s1)C(c1ccccc1)c1ccccc1 [Example 23] | 60.9
COC(=O)N[C@H](C(=O)NCc1ccc(C(CO)N(Cc2cc3ccccc3[nH]2)S(=O)(=O)c2ccc3scnc3c2)s1)C(c1ccccc1)c1ccccc1 (stereo partly drawn) [Example 24] | 13.6
COC(=O)N[C@H](C(=O)NCc1ccc([C@@H](CO)N(Cc2cc3ccccc3[nH]2)S(=O)(=O)c2ccc3scnc3c2)s1)C(c1ccccc1)c1ccccc1 [Example 25] | 7.99
COC(=O)N[C@H](C(=O)NCc1ccc(C(CO)N(Cc2cccnc2OC)S(=O)(=O)c2ccc3scnc3c2)s1)C(c1ccccc1)c1ccccc1 (stereo partly drawn) [Example 26] | 31
COC(=O)N[C@H](C(=O)NCc1ccc(C(CO)N(Cc2ccnc(OC)c2)S(=O)(=O)c2ccc3scnc3c2)s1)C(c1ccccc1)c1ccccc1 (stereo partly drawn) [Example 27] | 15.5
COC(=O)N[C@H](C(=O)NCc1ccc([C@@H](CO)N(Cc2ccnc(OC)c2)S(=O)(=O)c2ccc3scnc3c2)s1)C(c1ccccc1)c1ccccc1 [Example 28] | 1.45
COC(=O)N[C@H](C(=O)NCc1ccc([C@H](CO)N(Cc2ccnc(OC)c2)S(=O)(=O)c2ccc3scnc3c2)s1)C(c1ccccc1)c1ccccc1 [Example 29] | 106
COC(=O)N[C@H](C(=O)NCc1ccc(C(CO)N(Cc2cnn(S(=O)(=O)N(C)C)c2)S(=O)(=O)c2ccc3scnc3c2)s1)C(c1ccccc1)c1ccccc1 (stereo partly drawn) [Example 30] | 5.13
COC(=O)N[C@H](C(=O)NCc1ccc(C(CO)N(Cc2cn[nH]c2)S(=O)(=O)c2ccc3scnc3c2)s1)C(c1ccccc1)c1ccccc1 (stereo partly drawn) [Example 31] | 3.62
COC(=O)N[C@H](C(=O)NCc1ccc([C@@H](CO)N(Cc2cn[nH]c2)S(=O)(=O)c2ccc3scnc3c2)s1)C(c1ccccc1)c1ccccc1 [Example 32] | 2.27
COC(=O)N[C@H](C(=O)NCc1ccc([C@H](CO)N(Cc2cn[nH]c2)S(=O)(=O)c2ccc3scnc3c2)s1)C(c1ccccc1)c1ccccc1 [Example 33] | 96.6
COC(=O)N[C@H](C(=O)NCc1ccc(C(CO)N(Cc2cc3cccnc3[nH]2)S(=O)(=O)c2ccc3scnc3c2)s1)C(c1ccccc1)c1ccccc1 (stereo partly drawn) [Example 34] | 35
COC(=O)N[C@H](C(=O)NCc1ccc([C@@H](CO)N(Cc2cc3cccnc3[nH]2)S(=O)(=O)c2ccc3scnc3c2)s1)C(c1ccccc1)c1ccccc1 [Example 35] | 11.9
COC(=O)N[C@H](C(=O)NCc1ccc(C(CO)N(CC2CC(F)(F)C2)S(=O)(=O)c2ccc3c(c2)CCC3O)s1)C(c1ccccc1)c1ccccc1 (stereo partly drawn) [Example 36] | 3.65
COC(=O)N[C@H](C(=O)NCc1ccc([C@@H](CO)N(CC2CC(F)(F)C2)S(=O)(=O)c2ccc3c(c2)CCC3O)s1)C(c1ccccc1)c1ccccc1 (stereo partly drawn) [Example 37] | 5.65
COC(=O)N[C@H](C(=O)NCc1ccc([C@@H](CO)N(CC2CC(F)(F)C2)S(=O)(=O)c2ccc3c(c2)C(O)CC3)s1)C(c1ccccc1)c1ccccc1 (stereo partly drawn) [Example 38] | 13.6
COC(=O)N[C@H](C(=O)NCc1ccc([C@@H](CO)N(CC2CC(F)(F)C2)S(=O)(=O)c2cccc(C(=O)c3ccccn3)c2)s1)C(c1ccccc1)c1ccccc1 [Example 40] | 175
COC(=O)N[C@H](C(=O)NCc1ccc([C@@H](CO)N(CC2CC(F)(F)C2)S(=O)(=O)c2ccc3cc[nH]c3c2)s1)C(c1ccccc1)c1ccccc1 [Example 41] | 8.83
COC(=O)N[C@H](C(=O)NCc1ccc([C@@H](CO)N(CC2CC(F)(F)C2)S(=O)(=O)c2cccc(Cc3ccccn3)c2)s1)C(c1ccccc1)c1ccccc1 [Example 42] | 110
COC(=O)N[C@H](C(=O)NCc1ccc([C@@H](CO)N(CC2CC(F)(F)C2)S(=O)(=O)c2ccc(N)c(F)c2)s1)C(c1ccccc1)c1ccccc1 [Example 43] | 5.04

Reference: patent US9133157B2, “HIV protease inhibitors” (Merck Canada Inc., priority 2011, dated 2015)
